Assay results as given in patent US20030170731A1, “Diagnosis and treatment of non-ulcer dyspepsia based on hypothalamic-pituitary-adrenal axis abnormallity” (priority 2000, published 2003).

System: CRH receptors
Test: CRH/ACTH test: plasma ACTH after intravenous ovine CRH, immunoradiometric assay
Assay type: in vivo, human
Settings: ovine CRH 100 μg intravenously
Excerpt: A total of ten patients with NUD were recruited from the Gastroenterology Clinic at St. James's Hospital, Dublin. Patients consisted of six men and four woman between the ages of twenty eight and forty five. They were matched for age and sex with ten healthy volunteers. To be included in the study patients had at least four of the following symptoms for at least three months: early satiety, upper abdominal pain, post prandial bloating, excessive flatulence, borborygmus, and nausea and/or vomiting. They all had normal results on physical examination. Endoscopic examination, twenty-four hour ambulatory pH monitoring, abdominal ultrasound were all negative. Five patients with H. pylori infestation were tested both before and after H. pylori eradication. The other five patients had no evidence of H. pylori infection. None of the patients had evidence of a formal psychiatric illness. Also none of the patients fulfilled the criteria for IBS.
Patients who were H. pylori positive were re-tested six months after commencing eradication therapy. In all cases endocrine tests were commenced at 1400 h. The test procedure was as follows. […]
Plasma ACTH was measured using a two site unextracted immunoradiometric assay with a commercially available kit supplied by the Nichols Institute (San Juan Capistrano, Calif.). […]

Substance: ovine CRH: ovine variant of corticotropin releasing hormone, given intravenously as a challenge agent
- CRH/ACTH enhancement following H. pylori eradication therapy (H. pylori positive NUD patients re-tested six months after commencing eradication therapy): persists
- plasma ACTH response following CRH stimulation (NUD patients with and without H. pylori infection, relative to healthy volunteers, blood at 15-120 min): vastly enhanced
